The supplement of paper PMC10307832

Tests used:
Assay in all cases: relative viability (nuclei count vs DMSO), 5 days (fraction); higher = more cells survive
[1] = compound: CC(C)CCN1c2nc(Nc3cc(F)c(O)c(F)c3)ncc2N(C)C(=O)C1C [BI-D1870] + Nc1nc2[nH]cc(CCc3ccc(C(=O)N[C@@H](CCC(=O)O)C(=O)O)cc3)c2c(=O)[nH]1 [Pemetrexed] (partner 0.2 µM)
Method in brief: (§1)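 A single step with final 0.05% Triton X-100, 1% formaldehyde and 1 ug/ml Hoechst fixed the cells and stained nuclei 5 days after treatment. Lung cancer cell lines in 1536-well plates had been treated by pin tool the day after seeding with one drug alone or a fixed anchor-drug dose plus five library-drug doses (not always all listed) in √10 steps, and nuclei were counted on 4× images. Relative viability is the ratio of nuclei in treated wells to nuclei in vehicle wells, taken as the median of duplicate plates.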

[2] = compound: O=c1ncccn1[C@@H]1O[C@H](CO)[C@@H](O)[C@H]1O [Zebularine] + O=C(c1cc(Cc2n[nH]c(=O)c3ccccc23)ccc1F)N1CCN(C(=O)C2CC2)CC1 [Olaparib] (partner 8 µM)
Method in brief: as §1

[3] = compound: O=c1ncccn1[C@@H]1O[C@H](CO)[C@@H](O)[C@H]1O [Zebularine] + COc1cccc2cc(-c3nc([C@H]4CC[C@H](C(=O)O)CC4)n4ncnc(N)c34)[nH]c12 [OSI-027] (partner 0.5 µM)
Method in brief: as §1

[4] = compound: O=c1ncccn1[C@@H]1O[C@H](CO)[C@@H](O)[C@H]1O [Zebularine] + Nc1ncn([C@H]2C[C@H](O)[C@@H](CO)O2)c(=O)n1 [Decitabine] (partner 2 µM)
Method in brief: as §1

Cell Line	relative viability ([1]; first compound 0.04 µM)	relative viability ([1]; first compound 0.1265 µM)	relative viability ([1]; first compound 0.4 µM)	relative viability ([1]; first compound 1.265 µM)	relative viability ([1]; first compound 4 µM)	relative viability ([2]; first compound 1 µM)	relative viability ([2]; first compound 3.162 µM)	relative viability ([2]; first compound 10 µM)	relative viability ([2]; first compound 31.62 µM)	relative viability ([2]; first compound 100 µM)	relative viability ([3]; first compound 1 µM)	relative viability ([3]; first compound 3.162 µM)	relative viability ([3]; first compound 10 µM)	relative viability ([3]; first compound 31.62 µM)	relative viability ([3]; first compound 100 µM)	relative viability ([4]; first compound 1 µM)	relative viability ([4]; first compound 3.162 µM)	relative viability ([4]; first compound 10 µM)	relative viability ([4]; first compound 31.62 µM)	relative viability ([4]; first compound 100 µM)
NCI-H1792	1.12	0.795	0.706	1.11	0.634	0.228	0.131	0.204	0.171	0.182	0.67	0.668	0.318	0.384	0.366	0.62	0.531	0.292	0.292	0.254
LCLC-97TM1	0.173	0.188	0.16	0.221	0.175	0.404	0.289	0.138	0.104	0.119	0.572	0.533	0.258	0.198	0.213	0.211	0.202	0.183	0.176	0.117
LCLC-103H	0.453	0.457	0.48	0.434	0.439	0.839	0.829	0.597	0.632	0.637	0.474	0.434	0.321	0.414	0.462	0.801	0.727	0.713	0.719	0.666
PC-3 [JPC-3]	1.1	1.1	1.01	0.806	0.479	1.18	0.984	0.675	0.673	0.593	0.832	0.701	0.554	0.663	0.656	0.781	0.817	0.755	0.842	0.659
BEN	0.784	0.628	0.743	0.96	0.697	0.819	0.623	0.608	0.428	0.506	0.544	0.29	0.279	0.24	0.272	0.821	0.686	0.545	0.495	0.371
NCI-H1666	0.857	0.835	0.895	0.812	0.779	0.812	0.803	0.65	0.802	0.75	0.721	0.785	0.634	0.947	0.979	0.8	0.736	0.698	0.712	0.669
LC-2-ad	0.292	0.267	0.264	0.275	0.253	0.729	0.681	0.434	0.201	0.254	0.858	0.559	0.546	0.573	0.529	0.83	0.796	0.554	0.72	0.329
SK-LU-1	1.1	0.918	1.01	0.868	0.366	0.434	0.351	0.333	0.313	0.289	0.369	0.359	0.31	0.291	0.302	0.583	0.652	0.478	0.675	0.495
ChaGo-K-1	0.255	0.245	0.253	0.242	0.235	0.332	0.32	0.289	0.202	0.187	0.66	0.593	0.331	0.239	0.23	0.534	0.566	0.432	0.232	0.199
COR-L 105	1.31	0.883	1.14	1.32	1.05	0.715	0.671	0.766	1.02	0.644	0.763	0.642	0.566	0.697	0.684	0.642	0.696	0.523	0.648	0.647
NCI-H1975	0.299	0.272	0.292	0.305	0.238	0.84	0.574	0.277	0.257	0.251	0.845	0.695	0.383	0.335	0.23	0.428	0.346	0.345	0.35	0.267
NCI-H1993	0.646	0.605	0.582	0.594	0.475	1.09	0.885	0.416	0.982	0.693	0.532	0.545	0.52	0.543	0.498	0.639	0.602	0.506	0.601	0.703
RERF-LC-KJ	0.453	0.447	0.476	0.527	0.413	0.989	0.874	0.655	1.03	0.845	0.715	0.523	0.51	0.548	0.575	0.828	0.733	0.587	0.85	0.751
NCI-H23	1.12	0.585	0.602	0.684	0.316	0.318	0.132		0.276	0.258	0.674	0.55	0.368	0.628	0.518	0.344	0.342		0.303	0.335
HCC-366	0.148	0.174	0.215	0.176	0.118	0.411	0.294	0.186	0.103	0.108	1.02	0.831	0.558	0.807	0.253	0.412	0.336	0.274	0.389	0.108
EMC-BAC-2	0.457	0.456	0.421	0.541	0.46	0.559	0.477	0.364	0.526	0.488	0.406	0.366	0.341	0.387	0.368	1.03	1	0.772	1.03	1.01
